According to patent US4450115A, “Amino-alcohol derivatives” (Kyowa Hakko Kogyo Co., Ltd., priority 1979, dated 1984):
Where two headings read alike, the source gives them in different places.

How the values were obtained:
in vivo = conditions: mouse, male dd-strain mice
Source text: The test compounds were orally administered to male dd-strain mice weighing 20-25 g.

[1] = tested on: main artery of the dogs' organ; assay: Effect on organ blood flow; format: in vivo, mongrel dogs; conditions: Canis lupus familiaris, iv, Table 5, 0.1 mg administration, femoral vein;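 note: percent change relative to blood flow before compound administration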
[2] = tested on: main artery of the dogs' organ; assay: Effect on organ blood flow; format: in vivo, mongrel dogs; conditions: Canis lupus familiaris, iv, Table 7, femoral vein;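 note: percent change relative to blood flow before compound administration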
Method: (§1) In experiments (a), (b), (c) and (d), 3-4 male or female mongrel dogs (weight: 10-20 Kg) as one group were anesthetized by intravenous administration of 30 mg/kg of pentobarbital-Na. All compounds were dissolved in polyethylene glycol 400 and administered to the femoral vein.
(b) Effect on organ blood flow M (%)
In this test, 1 mg/kg of each compound shown in Tables 5 and 7 is administered to the dogs and an electromagnetic probe is attached to the main artery of the dogs' organ to measure the flow of blood.

Effect on heart rate = format: in vivo, mongrel dogs; conditions: Table 7; dogs, 1 mg/kg, femoral vein
Method: as §1
(d) Effect on heart rate (beats/min.)

β1-adrenergic receptor = assay: β1 blocking activity (inhibition of Isoproterenol-induced increase in heart rate); format: in vivo, mongrel dogs; conditions: Table 6; dogs, *dose of compound 1 mg/kg; 0.5 μg/kg Isoproterenol i.v.
Method: as §1
(c-2) β1 blocking activity
In this test, 0.5 μg/kg of Isoproterenol is intravenously administered to the dogs to cause an increase in the heart rate.

β2-adrenergic receptor = assay: β2 blocking activity (inhibition of Isoproterenol-induced decrease in diastolic blood pressure); format: in vivo, mongrel dogs; conditions: Table 6; dogs, *dose of compound 1 mg/kg; 0.5 μg/kg Isoproterenol i.v.
Method: as §1
(c-3) β2 blocking activity
In this test, 0.5 μg/kg of Isoproterenol is intravenously administered to the dogs to cause a decrease in diastolic blood pressure.

α-adrenergic receptor = assay: α blocking activity (inhibition of Norepinephrine-induced increase in systolic blood pressure); format: in vivo, mongrel dogs; conditions: Table 6; dogs, *dose of compound 1 mg/kg; 3 μg/kg Norepinephrine i.v.
Method: as §1
(c-1) α blocking activity
In this test, 3 μg/kg of Norepinephrine is intravenously administered to the dogs to cause an increase in systolic blood pressure.

[3] = read-out: Organ blood flow, Crotch (percentage change)
[4] = read-out: Organ blood flow, Malleus (percentage change)

CCCC(=O)Nc1ccc(OCC(O)CNCC2COc3ccccc3O2)c(C(C)=O)c1 (stereo not shown) [Compound 4, 1-(4-butyrylamido-2-acetyl)phenoxy-3-(1,4-benzodioxane-2-methaneamino)-2-propanol]
LD50 (in vivo; Table 5, oral): > 1000 mg/kg | change in vivo at 0.1 mg [1, 3]: -18% | change in vivo at 0.1 mg [1, 4]: -46%

CCOC(=O)Cc1ccc(OCC(O)CNCCN(Cc2ccccc2)C(C)COc2ccccc2)cc1 (stereo not drawn) [Compound 26, 1-(4-ethoxycarbonylmethylphenoxy)-3-{β-[N-benzyl-N-(1-methyl-2-phenoxyethyl)]aminoethyl}amino-2-propanol]
LD50 (in vivo; Table 7, oral): > 1000 mg/kg | change in vivo at 1 mg/kg [2, 3]: -12% | change in vivo at 1 mg/kg [2, 4]: 67% | Heart rate (decrease) (Effect on heart rate): -20 beats/min.

CCCC(=O)Nc1ccc(OCC(O)CNCCN(Cc2ccccc2)C(C)COc2ccccc2)c(C(C)=O)c1 (stereo not drawn) [Compound 28, 1-(4-butyrylamido-2-acetylphenoxy)-3-{β-[N-benzyl-N-(1-methyl-2-phenoxyethyl)]aminoethyl} amino-2-propanol]
LD50 (in vivo; Table 7, oral): 1000 to 2000 mg/kg | change in vivo at 1 mg/kg [2, 3]: 4% | change in vivo at 1 mg/kg [2, 4]: 61% | Heart rate (decrease) (Effect on heart rate): -8 beats/min.

Cc1cccc(OCC(O)CNCCN(Cc2ccccc2)C(C)COc2ccccc2)c1 (stereo not drawn) [Compound 29, 1-(3-methylphenoxy)-3-{β-[N-benzyl-N-(1-methyl-2-phenoxyethyl)]aminoethyl} amino-2-propanol]
change in vivo at 1 mg/kg [2, 3]: -45% | change in vivo at 1 mg/kg [2, 4]: 100% | Heart rate (decrease) (Effect on heart rate): -4 beats/min.

CC(COc1ccccc1)N(CCNCC(O)COc1ccc(CC(N)=O)cc1)Cc1ccccc1 (stereo not drawn) [Compound 30, 1-(4-carbamoylmethylphenoxy)-3-{β-[N-benzyl-N-(1-methyl-2-phenoxyethyl)]aminoethyl} amino-2-propanol]
change in vivo at 1 mg/kg [2, 3]: -19% | change in vivo at 1 mg/kg [2, 4]: 10% | Heart rate (decrease) (Effect on heart rate): -5 beats/min.

CC(=O)Nc1ccc(OCC(O)CNCCN(Cc2ccccc2)C(C)COc2ccccc2)cc1 (stereo not drawn) [Compound 27, 1-(4-acetamidophenoxy)-3-{β-[N-benzyl-N-(1-methyl-2-phenoxyethyl)]aminoethyl} amino-2-propanol]
LD50 (in vivo; Table 7, oral): > 1000 mg/kg | change in vivo at 1 mg/kg [2, 3]: 3% | change in vivo at 1 mg/kg [2, 4]: 100% | Heart rate (decrease) (Effect on heart rate): -13 beats/min.

CC(CCc1ccccc1)NCC(O)COc1ccc(CC(N)=O)cc1 (stereo not shown) [Compound 11, 1-(4-carbamoylmethylphenoxy)-3-(1-methyl-3-phenylpropylamino)-2-propanol]
LD50 (in vivo; Table 6, oral): > 1000 mg/kg | β1 blocking activity, percentage inhibition (β1-adrenergic receptor): -86% | β2 blocking activity, percentage inhibition (β2-adrenergic receptor): -22% | α blocking activity, percentage inhibition (α-adrenergic receptor): -78%
